Measurements as given in patent publication US20250109275A1, “AMINE FATTY ACID ADDUCTS AS TIRE COMPOUNDING ADDITIVES” (priority 2023, published 2025).

How the values were obtained:
[1] = Flash point of the additive; type: physicochemical; conditions: neat additive
[2] = Pour point of the additive; type: physicochemical; set-up: unit not given here; conditions: neat additive
[3] = neat additive
From the text: Additional characteristics of the exemplary additives and controls are shown below in Table 9. […] The Control and Control 2 are the presented formula without an additive included. […] Blend 1 is the presented formula with a blend of rosin ester tackifier and fatty acid ester used as a control additive. For Control 2 and Inventive Ex. 1-Adj, the first pass and second pass were mixed in the mixer, but the final pass was mixed on the mill. Inventive Ex. 1-Adj was split into three (3) to allow for three (3) different cure adjustments to try to increase the Ts2 (the […] time for the viscosity to increase 2 units above minimum torque (ML)), slightly reduce Tc90 (the time it takes to get to 90% of the maximum state of cure/cross-linking (MH or maximum torque)), and increase the maximum torque (MH) to more closely match the Moving Die Rheometer (MDR) curve of the control compound.

Row | Molecule | Flash Point [1] [C.] | Pour Point [2] | Water Solubility [3]
1 | CCCCCCCC/C=C\CCCCCCCC(=O)NCCNCCN [Inventive Ex. 1, diethylenetriamine (DETA) oleic acid amidoamine] | >200 | 36 | –
2 | CCCCCCCC/C=C\CCCCCCCC1=NCCN1CCN [Inventive Ex. 2, diethylenetriamine (DETA) oleic acid imidazoline] | >200 | −27 | Partial ~2%
3 | CCCCCCCC/C=C\CCCCCCCC(=O)NCCNCCNC(=O)CCCCCCC/C=C\CCCCCCCC [Inventive Ex. 3, diethylenetriamine (DETA) oleic acid bisamide] | >200 | 78 | none

More lines, main results first:

Row | Flash Point [1] [C.] | Pour Point [2] | Molecule | Water Solubility [3]
4 | 113 | 0 | CCCCCCCC/C=C\CCCCCCCC(=O)NCCCN(C)C [Inventive Ex. 6, dimethylaminopropylamine (DMAPA) oleic acid amidoamine] | –
5 | >200 | −12 | tetraethylenepentamine (TEPA) oleic acid amidoamine [Inventive Ex. 5] | –
